Test results reported in patent publication US20240166652A1, “MODULATORS OF THE INTEGRATED STRESS PATHWAY” (Calico Life Sciences LLC, priority 2017, published 2024).

The molecules below were run on ATF4 luciferase reporter in HEK293T cells (assay: ATF4-Luc assay (ATF4 luciferase reporter, tunicamycin-treated HEK293T cells)). Conditions: Homo sapiens, HEK-293T; HEK293T cells carrying the ATF4 luciferase reporter, 1 μg/mL tunicamycin, 7 hours.
Type: cell-based, human

First: O=C(COc1cnc(OCC(F)(F)F)nc1)NC12CCC(NC(=O)COc3ccc(Cl)c(F)c3)(CC1)[C@@H](O)C2 [Compound 629, 2-(4-chloro-3-fluorophenoxy)-N-[(2S)-2-hydroxy-4-(2-{[2-(2,2,2-trifluoroethoxy)pyrimidin-5-yl]oxy}acetamido)bicyclo[2.2.2]octan-1-yl]acetamide]
Second: O=C(COc1ccc(Cl)c(F)c1)NC12CCC(NC(=O)COc3ccnc(C(F)(F)F)c3)(CC1)C(O)C2 (centres unmarked) [Compound 308, 2-(4-chloro-3-fluorophenoxy)-N-[3-hydroxy-4-(2-{[2-(trifluoromethyl)pyridin-4-yl]oxy}acetamido)bicyclo[2.2.2]octan-1-yl]acetamide]
The EC50 of the first is higher: 50 to 250 nM for the first, under 10 nM for the second.

`O=C(COc1ccc(Cl)c(F)c1)N[C@]12CC[C@H](C1)[C@@H](NCCOc1ccc(Cl)c(F)c1)[C@H](O)C2` (racemic) [Compound 649, rac-2-(4-chloro-3-fluorophenoxy)-N-[(1R,3R,4R,5R)-4-{[2-(4-chloro-3-fluorophenoxy)ethyl]amino}-3-hydroxybicyclo[3.2.1]octan-1-yl]acetamide] and `O=C(COc1ccc(Cl)c(F)c1)N[C@]12CC[C@](NC(=O)COc3ccc(Cl)c(F)c3)(C[C@@H]1O)[C@@H](O)C2` (racemic) [Compound 560, rac-N,N′-[(1S,2S,4S,5S)-2,5-dihydroxybicyclo[2.2.2]octane-1,4-diyl]bis[2-(4-chloro-3-fluorophenoxy)acetamide]] cannot be ordered by EC50: under 10 nM for the first, under 10 nM for the second.

First: O=C(COc1ccc(F)c(F)c1)NC12CC(NC(=O)COc3ccc(F)c(Cl)c3)(C1)C2 [Compound 590, 2-(3-chloro-4-fluorophenoxy)-N-{3-[2-(3,4-difluorophenoxy)acetamido]bicyclo[1.1.1]pentan-1-yl}acetamide]
Second: O=C(COc1ccc(F)c(F)c1)NC12CC(NC(=O)COc3ccc(F)c(F)c3)(C1)C2 [Compound 185, N,N′-(bicyclo[1.1.1]pentane-1,3-diyl)bis[2-(3,4-difluorophenoxy)acetamide]]
The EC50 of the first is lower: under 10 nM for the first, 10 to 50 nM for the second. The first is the more potent here.

First: O=C(COc1ccc(Cl)c(F)c1)NC12CCC(NC(=O)COc3cccnc3)(CC1)[C@@H](O)C2 [Compound 495, 2-(4-chloro-3-fluorophenoxy)-N-[(3S)-3-hydroxy-4-{2-[(pyridin-3-yl)oxy]acetamido}bicyclo[2.2.2]octan-1-yl]acetamide]
Second: O=C(COc1ccc(Cl)c(F)c1)NC12CCC(NC(=O)COc3ccc(Cl)c(Cl)c3)(CC1)[C@@H](O)C2 [Compound 452, 2-(4-chloro-3-fluorophenoxy)-N-{(3S)-4-[2-(3,4-dichlorophenoxy)acetamido]-3-hydroxybicyclo[2.2.2]octan-1-yl}acetamide]
The EC50 of the first is higher: 10 to 50 nM for the first, under 10 nM for the second.

`O=C(COc1ccc(Cl)c(F)c1)NC12CCC(NC(=O)COc3ccc(OC(F)F)c(F)c3)(CC1)[C@@H](O)C2` [Compound 802, 2-(4-chloro-3-fluorophenoxy)-N-[(3S)-4-{2-[4-(difluoromethoxy)-3-fluorophenoxy]acetamido}-3-hydroxybicyclo[2.2.2]octan-1-yl]acetamide] and `O=C(COc1ccc(C(F)(F)F)c(F)c1)NC12CCC(NC(=O)COc3ccc(F)c(F)c3)(CC1)[C@@H](O)C2` [Compound 842, 2-(3,4-difluorophenoxy)-N-[(2S)-4-{2-[3-fluoro-4-(trifluoromethyl)phenoxy]acetamido}-2-hydroxybicyclo[2.2.2]octan-1-yl]acetamide] cannot be ordered by EC50: under 10 nM for the first, under 10 nM for the second.

`O=C(COc1ccc(Cl)c(Cl)c1)NC12CC(NC(=O)COc3ccc(Cl)cc3F)(C1)C2` [Compound 122, 2-(4-chloro-2-fluorophenoxy)-N-{3-[2-(3,4-dichlorophenoxy)acetamido]-bicyclo[1.1.1]pentan-1-yl}acetamide] and `O=C(COc1ccc(F)c(Cl)c1)NC12CC(NC(=O)COc3ccc(Cl)c(Cl)c3)(C1)C2` [Compound 533, 2-(3-chloro-4-fluorophenoxy)-N-{3-[2-(3,4-dichlorophenoxy)acetamido]bicyclo[1.1.1]pentan-1-yl}acetamide] cannot be ordered by EC50: under 10 nM for the first, under 10 nM for the second.

`Cc1cc(OCC(=O)NC23CCC(NC(=O)COc4ccc(F)cc4)(CC2)[C@@H](O)C3)ccc1F` [Compound 817, 2-(4-fluoro-3-methylphenoxy)-N-{(3S)-4-[2-(4-fluorophenoxy)acetamido]-3-hydroxybicyclo[2.2.2]octan-1-yl}acetamide] and `O=C(COc1ccc(OC(F)(F)F)cc1)NC12CCC(NC(=O)COc3ccc(F)c(F)c3)(CC1)[C@@H](O)C2` [Compound 784, 2-(3,4-difluorophenoxy)-N-[(2S)-2-hydroxy-4-{2-[4-(trifluoromethoxy)phenoxy]acetamido}bicyclo[2.2.2]octan-1-yl]acetamide] cannot be ordered by EC50: under 10 nM for the first, under 10 nM for the second.

First: Cc1cc(COCC(=O)NC23CC(NC(=O)COc4ccc(Cl)c(F)c4)(C2)C3)cc(C)n1 [Compound 282, 2-(4-chloro-3-fluorophenoxy)-N-(3-{2-[(2,6-dimethylpyridin-4-yl)methoxy]acetamido}bicyclo[1.1.1]pentan-1-yl)acetamide]
Second: O=C(COc1ccc(Cl)nc1)NC12CC(NC(=O)COc3ccc(Cl)c(F)c3)(C1)C2 [Compound 225, 2-(4-chloro-3-fluorophenoxy)-N-(3-{2-[(6-chloropyridin-3-yl)oxy]acetamido}bicyclo[1.1.1]pentan-1-yl)acetamide]
The EC50 of the first is higher: over 2000 nM for the first, 10 to 50 nM for the second. The second is the more potent here.

Compared with `O=C(/C=C/c1ccc(OC(F)(F)F)cn1)NC12CCC(NC(=O)COc3ccc(Cl)c(F)c3)(C1)C2` [Compound 425, (2E)-N-{4-[2-(4-chloro-3-fluorophenoxy)acetamido]bicyclo[2.1.1]hexan-1-yl}-3-[5-(trifluoromethoxy)pyridin-2-yl]prop-2-enamide], `O=C(COc1ccc(Cl)c(F)c1)NC12CCC(NC(=O)COc3ccc(Cl)c(F)c3)(CC1)C(NCC(F)(F)F)C2` (centres unmarked) [Compound 714, N,N′-{2-[(2,2,2-trifluoroethyl)amino]bicyclo[2.2.2]octane-1,4-diyl}bis[2-(4-chloro-3-fluorophenoxy)acetamide]] is lower in EC50: 500 to 2000 nM for the first, 10 to 50 nM for the second. The second is the more potent here.

Going from `Cn1cc(OCC(=O)NC23CCC(NC(=O)COc4ccccn4)(CC2)C[C@@H]3O)cn1` [Compound 661, N-[(2S)-2-hydroxy-4-{2-[(pyridin-2-yl)oxy]acetamido}bicyclo[2.2.2]octan-1-yl]-2-[(1-methyl-1H-pyrazol-4-yl)oxy]acetamide] to `O=C(COc1cc(F)c2cn[nH]c2c1)NC12CCC(NC(=O)COc3ccc(Cl)cc3)(CC1)[C@@H](O)C2` [Compound 725, 2-(4-chlorophenoxy)-N-[(25)-4-{2-[(4-fluoro-1H-indazol-6-yl)oxy]acetamido}-2-hydroxybicyclo[2.2.2]octan-1-yl]acetamide], the EC50 falls from over 2000 nM to under 10 nM.

First: O=C(COc1ccc(Cl)c(F)c1)NC12CCC(NC(=O)COc3ccc(Cl)c(F)c3)(CC1)C(=O)N2 [Compound 603, N,N′-(3-oxo-2-azabicyclo[2.2.2]octane-1,4-diyl)bis[2-(4-chloro-3-fluorophenoxy)acetamide]]
Second: O=C(COc1ccc(Cl)c(F)c1)NC12CC(NC(=O)[C@@H](CO)Oc3ccc(Cl)c(F)c3)(C1)C2 [Compound 418, (2R)-2-(4-chloro-3-fluorophenoxy)-N-{3-[2-(4-chloro-3-fluorophenoxy)acetamido]bicyclo[1.1.1]pentan-1-yl}-3-hydroxypropanamide]
The EC50 of the first is lower: under 10 nM for the first, 10 to 50 nM for the second. The first is the more potent here.

First: O=C(CCOCc1cccc(Cl)c1)NC12CC(NC(=O)COc3ccc(Cl)c(Cl)c3)(C1)C2 [Compound 167, 3-[(3-chlorophenyl)methoxy]-N-{3-[2-(3,4-dichlorophenoxy)acetamido]-bicyclo[1.1.1]pentan-1-yl}propanamide]
Second: O=C(COc1cccc(Cl)c1)NC12CC(NC(=O)COc3ccc(Cl)c(Cl)c3)(C1)C2 [Compound 171, 2-(3-chlorophenoxy)-N-{3-[2-(3,4-dichlorophenoxy)acetamido]-bicyclo[1.1.1]pentan-1-yl}acetamide]
The EC50 of the first is higher: 500 to 2000 nM for the first, under 10 nM for the second. The second is the more potent here.

First: O=C(COc1ccc(Cl)c(F)c1)NC12CCC(OCc3ccccc3)(CC1)CC2O (centres unmarked) [Compound 567, N-[4-(benzyloxy)-2-hydroxybicyclo[2.2.2]octan-1-yl]-2-(4-chloro-3-fluorophenoxy)acetamide]
Second: N#Cc1ccc(CNC23CCC(NC(=O)COc4ccc(Cl)c(F)c4)(CC2)CC3O)cc1 (centres unmarked) [Compound 343, 2-(4-chloro-3-fluorophenoxy)-N-(4-{[(4-cyanophenyl)methyl]amino}-3-hydroxybicyclo[2.2.2]octan-1-yl)acetamide]
The EC50 of the first is higher: 500 to 2000 nM for the first, 50 to 250 nM for the second.

First: O=C(COc1ccc(C(F)(F)F)nc1)NC12CCC(NC(=O)COc3ccc(C(F)(F)F)nc3)(CC1)C2 [Compound 530, N,N′-(bicyclo[2.2.1]heptane-1,4-diyl)bis(2-{[6-(trifluoromethyl)pyridin-3-yl]oxy}acetamide)]
Second: O=C(COc1ccc(S(F)(F)(F)(F)F)cc1)NC12CCC(NC(=O)COc3ccc(Cl)c(F)c3)(CC1)[C@@H](O)C2 [Compound 839, 2-(4-chloro-3-fluorophenoxy)-N-[(2S)-2-hydroxy-4-{2-[4-(pentafluoro-lambda^6-sulfanyl)phenoxy]acetamido}bicyclo[2.2.2]octan-1-yl]acetamide]
The EC50 of the first is higher: 500 to 2000 nM for the first, under 10 nM for the second. The second is the more potent here.

First: Cc1cc(OC(C)(C)C(=O)NC23CCC(NC(=O)COc4ccc(Cl)c(F)c4)(CC2)C[C@@H]3O)ccc1Cl [Compound 439, N-{(2S)-4-[2-(4-chloro-3-fluorophenoxy)acetamido]-2-hydroxybicyclo[2.2.2]octan-1-yl}-2-(4-chloro-3-methylphenoxy)-2-methylpropanamide]
Second: O=C(CO)Nc1cc(Cl)ccc1OCC(=O)NC12CC(NC(=O)COc3ccc(Cl)c(F)c3)(C1)C2 [Compound 789, 2-(4-chloro-3-fluorophenoxy)-N-(3-{2-[4-chloro-2-(2-hydroxyacetamido)phenoxy]acetamido}bicyclo[1.1.1]pentan-1-yl)acetamide]
The EC50 of the first is lower: under 10 nM for the first, 50 to 250 nM for the second. The first is the more potent here.

First: O=C(COc1ccc(Cl)c(F)c1)NC12CC(NC(=O)Cc3cccnc3)(C1)C2 [Compound 458, 2-(4-chloro-3-fluorophenoxy)-N-{3-[2-(pyridin-3-yl)acetamido]bicyclo[1.1.1]pentan-1-yl}acetamide]
Second: CN(C(=O)COc1ccc(Cl)c(Cl)c1)C12CC(NC(=O)COc3ccc(Cl)c(Cl)c3)(C1)C2 [Compound 198, 2-(3,4-dichlorophenoxy)-N-{3-[2-(3,4-dichlorophenoxy)acetamido]-bicyclo[1.1.1]pentan-1-yl}-N-methylacetamide]
The EC50 of the first is higher: over 2000 nM for the first, 50 to 250 nM for the second.
